Reference: publication PMC12638379, “An innovative approach to development of new pyrazolylquinolin-2-one hybrids as dual EGFR and BRAF^V600E inhibitors” (Molecular Diversity, 2025)
Where two headings read alike, the source gives them in different places.

Test system: NCI 60 cancer cell lines
Assay: NCI anticancer screening over a panel of 60 cancer cells, single concentration 10 µM
Type: cell-based, human
Conditions: Homo sapiens, read-out: % Growth Inhibition (GI %)
Procedure: Ten final compounds 4a–j and five intermediates 2a–e have been selected by the National Cancer Institute (NCI) for anticancer screening over a panel of 60 cancer cells that cover a variety of histological tissues, including the central nervous system, leukemia, lung, colon, kidney, ovary, breast, and prostate, using the protocol established by the National Cancer Institute (NCI). In a primary screening, each compound was screened at a concentration of 10 µM.
Compounds 2a-e and 4a-j were selected by the National Cancer Institute (NCI) according to the protocol of the Compound Evaluation Branch of the National Cancer Institute, Bethesda, USA, for in vitro anticancer screening which refers in turn to apoptotic activity. The methodology of the NCI anticancer screening has been described in detail elsewhere (http://www.dtp.nci.nih.gov).

COc1ccc2[nH]c(=O)cc(-n3ncc(/C(C)=N/Nc4ccc(S(N)(=O)=O)cc4)c3C)c2c1 [Compound 4c, (E)-4-(2-(1-(1-(6-methoxy-2-oxo-1,2-dihydroquinolin-4-yl)-5-methyl-1H-pyrazol-4-yl)ethylidene)hydrazineyl)benzenesulfonamide]
inhibition at 10 µM (786-0, Renal cancer 786-0, 10 μM): < 5%
inhibition at 10 µM (A498, Renal cancer A498, 10 μM): 7.1%
inhibition at 10 µM (A549, Non-small cell lung cancer A549/ATCC, 10 μM): < 5%
inhibition at 10 µM (ACHN, Renal cancer ACHN, 10 μM): < 5%
inhibition at 10 µM (BT-549, Breast cancer BT-549, 10 μM): < 5%
inhibition at 10 µM (CAKI-1, Renal cancer CAKI-1, 10 μM): < 5%
inhibition at 10 µM (CCRF-CEM, Leukemia CCRF-CEM, 10 μM): < 5%
inhibition at 10 µM (COLO 205, Colon cancer COLO 205, 10 μM): < 5%
inhibition at 10 µM (DU-145, Prostate cancer DU-145, 10 μM): < 5%
inhibition at 10 µM (HCC 2998, Colon cancer HCC-2998, 10 μM): < 5%
inhibition at 10 µM (HCT-116, Colon cancer HCT-116, 10 μM): < 5%
inhibition at 10 µM (HL-60, Leukemia HL-60(TB), 10 μM): < 5%
inhibition at 10 µM (HOP-92, Non-small cell lung cancer HOP-92, 10 μM): < 5%
inhibition at 10 µM (HT-29, Colon cancer HT29, 10 μM): < 5%
inhibition at 10 µM (IGROV-1, Ovarian cancer IGROV1, 10 μM): < 5%
inhibition at 10 µM (K562, Leukemia K-562, 10 μM): < 5%
inhibition at 10 µM (KM12, Colon cancer KM12, 10 μM): < 5%
inhibition at 10 µM (Leukemia SR, 10 μM): 13%
inhibition at 10 µM (MCF7, Breast cancer MCF7, 10 μM): 6.69%
inhibition at 10 µM (MDA-MB-231, Breast cancer MDA-MB-231/ATCC, 10 μM): 8.98%
inhibition at 10 µM (MDA-MB-435, Melanoma MDA-MB-435, 10 μM): < 5%
inhibition at 10 µM (MDA-MB-468, Breast cancer MDA-MB-468, 10 μM): 7.22%
inhibition at 10 µM (MOLT-4, Leukemia MOLT-4, 10 μM): < 5%
inhibition at 10 µM (Melanoma M14, 10 μM): < 5%
inhibition at 10 µM (Melanoma MALM-3M, 10 μM): 10.6%
inhibition at 10 µM (NCI-H23, Non-small cell lung cancer NCI-H23, 10 μM): 6%
inhibition at 10 µM (NCI-H226, Non-small cell lung cancer NCI-H226, 10 μM): 8.4%
inhibition at 10 µM (NCI-H460, Non-small cell lung cancer NCI-H460, 10 μM): < 5%
inhibition at 10 µM (NCI-H522, Non-small cell lung cancer NCI-H522, 10 μM): 11.8%
inhibition at 10 µM (OVCAR-3, Ovarian cancer OVCAR-3, 10 μM): < 5%
inhibition at 10 µM (OVCAR-4, Ovarian cancer OVCAR-4, 10 μM): < 5%
inhibition at 10 µM (OVCAR-5, Ovarian cancer OVCAR-5, 10 μM): < 5%
inhibition at 10 µM (OVCAR-8, Ovarian cancer OVCAR-8, 10 μM): < 5%
inhibition at 10 µM (Prostate cancer PC-3, 10 μM): < 5%
inhibition at 10 µM (RPMI-8226, Leukemia RPMI-8226, 10 μM): < 5%
inhibition at 10 µM (RXF 393, Renal cancer RXF 393, 10 μM): 6.12%
inhibition at 10 µM (SF-268, CNS Cancer SF-268, 10 μM): < 5%
inhibition at 10 µM (SF-295, CNS Cancer SF-295, 10 μM): 10.5%
inhibition at 10 µM (SF-539, CNS Cancer SF-539, 10 μM): 5.07%
inhibition at 10 µM (SK-MEL-2, Melanoma SK-MEL-2, 10 μM): < 5%
inhibition at 10 µM (SK-MEL-5, Melanoma SK-MEL-5, 10 μM): < 5%
inhibition at 10 µM (SK-MEL-28, Melanoma SK-MEL-28, 10 μM): < 5%
inhibition at 10 µM (SK-OV-3, Ovarian cancer SK-OV-3, 10 μM): < 5%
inhibition at 10 µM (SN12C, Renal cancer SN12C, 10 μM): 8.13%
inhibition at 10 µM (SNB-19, CNS Cancer SNB-19, 10 μM): 5.89%
inhibition at 10 µM (SNB-75, CNS Cancer SNB-75, 10 μM): < 5%
inhibition at 10 µM (SW-620, Colon cancer SW-620, 10 μM): < 5%
inhibition at 10 µM (T47D, Breast cancer T-47D, 10 μM): 12.1%
inhibition at 10 µM (TK-10, Renal cancer TK-10, 10 μM): < 5%
inhibition at 10 µM (U-251, CNS Cancer U251, 10 μM): < 5%
inhibition at 10 µM (UACC-62, Melanoma UACC-62, 10 μM): 5.15%
inhibition at 10 µM (UACC-257, Melanoma UACC-257, 10 μM): < 5%
inhibition at 10 µM (UO-31, Renal cancer UO-31, 10 μM): 12.9%
